In this test the target is Cholinesterase (Homo sapiens, UniProt P06276). The experiment in a line: Inhibition of human BChE after 30 mins by microplate reader method.

The structures appear in SMILES notation.

Cholinesterase, sequence (P06276 whole entry): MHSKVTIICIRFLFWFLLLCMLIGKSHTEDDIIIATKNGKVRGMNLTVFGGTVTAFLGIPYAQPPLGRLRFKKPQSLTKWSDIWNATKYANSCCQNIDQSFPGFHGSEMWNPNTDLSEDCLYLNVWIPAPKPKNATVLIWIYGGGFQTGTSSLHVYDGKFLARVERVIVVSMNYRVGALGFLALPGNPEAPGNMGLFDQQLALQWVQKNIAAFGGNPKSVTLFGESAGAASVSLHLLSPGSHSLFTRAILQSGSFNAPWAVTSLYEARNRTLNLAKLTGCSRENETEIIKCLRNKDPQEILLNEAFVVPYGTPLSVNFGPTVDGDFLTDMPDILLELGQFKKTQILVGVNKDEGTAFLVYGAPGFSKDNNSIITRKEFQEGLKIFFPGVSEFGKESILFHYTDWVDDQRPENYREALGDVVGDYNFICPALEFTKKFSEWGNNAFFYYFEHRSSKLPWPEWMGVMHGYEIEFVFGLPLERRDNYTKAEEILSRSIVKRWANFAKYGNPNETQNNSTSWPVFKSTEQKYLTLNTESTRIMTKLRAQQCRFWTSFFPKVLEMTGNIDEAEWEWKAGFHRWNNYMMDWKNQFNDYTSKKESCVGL

Regarding `CC(C)(C)c1cc(C(C)(C)C)c2c(c1F)COP(=O)(OC[C@H]1O[C@@H](n3cc(I)c(=O)[nH]c3=O)C[C@@H]1O)O2` (stereo partly specified), the IC50 was over 60 mM.

One may read the IC50 as the concentration needed to halve the response being measured. A low value points to inhibition by little substance.

The record behind these values is BindingDB's records for doi:10.1021/jm201482p (University of Nebraska Medical Center, 2012).
